{"source": "patent US20110201818A1", "about": "“POLO-LIKE KINASE INHIBITORS” (TAKEDA PHARMACEUTICAL COMPANY LIMITED, priority 2007, published 2011)", "data": [{"target": "T1, human PLK1 (Homo sapiens, UniProt P53350)", "T1 construct": "FLAG (DYKDDDDK) (N); made in house; host or cells: Sf21 insect cells, recombinant baculovirus (pFASTBAC1, Bac-to-Bac)", "T1 sequence (P53350 with tags, fused parts or gaps)": "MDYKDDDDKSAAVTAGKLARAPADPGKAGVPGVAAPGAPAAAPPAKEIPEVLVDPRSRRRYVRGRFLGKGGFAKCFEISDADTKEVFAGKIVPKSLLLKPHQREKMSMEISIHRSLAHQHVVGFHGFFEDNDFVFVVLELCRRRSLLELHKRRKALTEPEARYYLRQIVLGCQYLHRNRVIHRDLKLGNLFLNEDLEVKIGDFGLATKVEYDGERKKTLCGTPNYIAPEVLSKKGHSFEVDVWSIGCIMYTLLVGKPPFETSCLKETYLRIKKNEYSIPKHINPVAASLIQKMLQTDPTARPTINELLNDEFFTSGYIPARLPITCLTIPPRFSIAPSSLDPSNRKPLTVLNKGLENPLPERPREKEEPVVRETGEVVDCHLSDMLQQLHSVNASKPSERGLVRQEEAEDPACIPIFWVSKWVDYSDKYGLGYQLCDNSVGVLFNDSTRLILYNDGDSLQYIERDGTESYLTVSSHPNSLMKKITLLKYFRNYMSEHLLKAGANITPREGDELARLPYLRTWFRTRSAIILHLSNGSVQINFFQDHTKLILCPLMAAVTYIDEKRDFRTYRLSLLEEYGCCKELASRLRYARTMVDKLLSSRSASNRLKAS", "assay": "PLK1 in vitro enzymatic activity assay (phosphorylation of alpha casein by recombinant PLK1)", "type": "biochemical", "settings": "not given", "experimental": "(§1) PCR was performed using the vector as a template. […] After XbaI and XhoI digestion of the PCR product, the fragment was subcloned into pFASTBAC1 (Invitrogen, USA). Recombinant baculoviruses were prepared according to the procedure of the Bac-to-Bac baculovirus expression system (Invitrogen, USA). Sf21 cells were purchased from Invitrogen and grown in Sf-900 II SFM medium containing 10% fetal bovine serum, 50 μg/mL gentamicin and 0.1% pluronic F-68 (Invitrogen, USA) at 28° C. For preparation of PLK1 enzyme, Sf21 cells were infected with recombinant baculoviruses and cultured at 28° C. for 72 h.\n(§2) The inhibition of PLK1 by the compounds was determined with the following assay that measures the phosphorylation of alpha casein by recombinant PLK1. Kinase reactions were performed at room temperature for 40 min in the kinase reaction buffer (25 mmol/L HEPES, pH 7.5, 10 mmol/L magnesium acetate, 1 mmol/L dithiothreitol) containing 50 ng PLK1 enzyme, 0.1 μCi [γ-^32P]ATP, 500 nmol/L ATP and 3 μg alpha casein (MP Biomedicals Inc., USA) in a final volume of 50 μL. The incubation was terminated by the addition of 10% trichloroacetic acid (Wako, Japan). Phosphorylated proteins were filtrated in GF/C filter plates (Packard, USA) with a Cell harvester (Packard, USA) and washed out free [γ-^32P]-ATP with 250 mmol/L phosphoric acid. Then, the plates were air dried for 60 min at 45° C., followed by the addition of 20 μL of MicroScint-O (Packard, USA). The radioactivity was counted by a Top-count scintillation counter (Packard, USA).", "units": {"IC50": "nM"}, "values": [{"smiles": "CCN1CCN(NC(=O)c2ccc(Nc3ncc4c(n3)N(C3CCCCC3)CC(F)(F)C(=O)N4C)c(OC)c2)CC1", "note": "[Compound 78, 4-(9-cyclohexyl-7,7-difluoro-5-methyl-6-oxo-6,7,8,9-tetrahydro-5H-pyrimido[4,5-b][1,4]diazepin-2-ylamino)-N-(4-ethylpiperazin-1-yl)-3-methoxybenzamide]", "IC50": "≤ 2"}]}, {"target": "T1, human PLK1", "assay": "PLK1 in vitro enzymatic activity assay (phosphorylation of alpha casein by recombinant PLK1)", "type": "biochemical", "settings": "recombinant FLAG-tagged PLK1, alpha casein substrate, 500 nmol/L ATP, 40 min at room temperature; read-out: pIC50 (PLK1) (converted)", "experimental": "as §1, §2", "units": {"IC50": "nM"}, "values": [{"smiles": "COc1cc(C(=O)NC2CCN(CCO)CC2)ccc1Nc1ncc2c(n1)N(C1CCCCC1)CC(F)(F)C(=O)N2C", "note": "[Compound 44, 4-(9-cyclohexyl-7,7-difluoro-5-methyl-6-oxo-6,7,8,9-tetrahydro-5H-pyrimido[4,5-b][1,4]diazepin-2-ylamino)-N-(1-(2-hydroxyethyl)piperidin-4-yl)-3-methoxybenzamide]", "IC50": "≤ 2"}, {"smiles": "CCc1cc(C(=O)NC2CCN(C)CC2)ccc1Nc1ncc2c(n1)N(C1CCCC1)CC(F)(F)C(=O)N2C", "note": "[Compound 27, 4-(9-Cyclopentyl-7,7-difluoro-5-methyl-6-oxo-6,7,8,9-tetrahydro-5H-pyrimido[4,5-b][1,4]diazepin-2-ylamino)-3-ethyl-N-(1-methylpiperidin-4-yl)benzamide]", "IC50": "≤ 2"}, {"smiles": "CCOc1cc(C(=O)NC2CCN(C)CC2)ccc1Nc1ncc2c(n1)N(C1CCCC1)CC(F)(F)C(=O)N2C", "note": "[Compound 29, 4-(9-Cyclopentyl-7,7-difluoro-5-methyl-6-oxo-6,7,8,9-tetrahydro-5H-pyrimido[4,5-b][1,4]diazepin-2-ylamino)-3-ethoxy-N-(1-methylpiperidin-4-yl)benzamide]", "IC50": "> 2"}, {"smiles": "CCC1(F)CN(C2CCCC2)c2nc(Nc3ccc(C(=O)NC4CN(C)C4)cc3OC)ncc2N(C)C1=O", "note": "(stereo not shown) [Compound 95, 4-(9-Cyclopentyl-7-ethyl-7-fluoro-5-methyl-6-oxo-6,7,8,9-tetrahydro-5H-pyrimido[4,5-b][1,4]diazepin-2-ylamino)-3-methoxy-N-(1-methylazetidin-3-yl)benzamide]", "IC50": "≤ 2"}, {"smiles": "COc1cc(C(=O)NC2CCCN(C)CC2)ccc1Nc1ncc2c(n1)N(C1CCCC1)CC(F)(F)C(=O)N2C", "note": "(stereo not shown) [Compound 15, 4-(9-cyclopentyl-7,7-difluoro-5-methyl-6-oxo-6,7,8,9-tetrahydro-5H-pyrimido[4,5-b][1,4]diazepin-2-ylamino)-3-methoxy-N-(1-methylazepan-4-yl)benzamide]", "IC50": "≤ 2"}, {"smiles": "COc1cc(C(=O)NC2CN(C(C)=O)C2)ccc1Nc1ncc2c(n1)N(C1CCCCC1)CC(F)(F)C(=O)N2C", "note": "[Compound 69, N-(1-acetylazetidin-3-yl)-4-(9-cyclohexyl-7,7-difluoro-5-methyl-6-oxo-6,7,8,9-tetrahydro-5H-pyrimido[4,5-b][1,4]diazepin-2-ylamino)-3-methoxybenzamide]", "IC50": "≤ 2"}, {"smiles": "COc1cc(C(=O)N[C@@H]2CCCNC2)ccc1Nc1ncc2c(n1)N(C1CCCCC1)CC(F)(F)C(=O)N2C", "note": "[Compound 38, (R)-4-(9-cyclohexyl-7,7-difluoro-5-methyl-6-oxo-6,7,8,9-tetrahydro-5H-pyrimido[4,5-b][1,4]diazepin-2-ylamino)-3-methoxy-N-(piperidin-3-yl)benzamide]", "IC50": "≤ 2"}, {"smiles": "COc1cc(C(=O)NC2CN(C)C2)ccc1Nc1ncc2c(n1)N(C1CCCCC1)CC(C)(F)C(=O)N2C", "note": "(stereo not shown) [Compound 90, 4-(9-Cyclohexyl-7-fluoro-5,7-dimethyl-6-oxo-6,7,8,9-tetrahydro-5H-pyrimido[4,5-b][1,4]diazepin-2-ylamino)-3-methoxy-N-(1-methylazetidin-3-yl)benzamide]", "IC50": "≤ 2"}, {"smiles": "COc1cc(C(=O)NC2CN(C(C)C)C2)ccc1Nc1ncc2c(n1)N(C1CCCC1)CC(F)(F)C(=O)N2C", "note": "[Compound 129, 4-(9-cyclopentyl-7,7-difluoro-5-methyl-6-oxo-6,7,8,9-tetrahydro-5H-pyrimido[4,5-b][1,4]diazepin-2-ylamino)-N-(1-isopropylazetidin-3-yl)-3-methoxybenzamide]", "IC50": "≤ 2"}, {"smiles": "COc1cc(C(=O)NC2CCN(CCO)CC2)c(F)cc1Nc1ncc2c(n1)N(C1CCCC1)CC(F)(F)C(=O)N2C", "note": "[Compound 117, 4-(9-Cyclopentyl-7,7-difluoro-5-methyl-6-oxo-6,7,8,9-tetrahydro-5H-pyrimido[4,5-b][1,4]diazepin-2-ylamino)-2-fluoro-N-(1-(2-hydroxyethyl)piperidin-4-yl)-5-methoxybenzamide]", "IC50": "≤ 2"}, {"smiles": "COc1cc(C(=O)N[C@H]2CCCNC2)ccc1Nc1ncc2c(n1)N(C1CCCCC1)CC(F)(F)C(=O)N2C", "note": "[Compound 37, (S)-4-(9-cyclohexyl-7,7-difluoro-5-methyl-6-oxo-6,7,8,9-tetrahydro-5H-pyrimido[4,5-b][1,4]diazepin-2-ylamino)-3-methoxy-N-(piperidin-3-yl)benzamide]", "IC50": "> 2"}, {"smiles": "COc1cc(C(=O)NN2CCCC2)ccc1Nc1ncc2c(n1)N(C1CCCCC1)CC(F)(F)C(=O)N2C", "note": "[Compound 67, 4-(9-cyclohexyl-7,7-difluoro-5-methyl-6-oxo-6,7,8,9-tetrahydro-5H-pyrimido[4,5-b][1,4]diazepin-2-ylamino)-3-methoxy-N-(pyrrolidin-1-yl)benzamide]", "IC50": "≤ 2"}, {"smiles": "COc1cc(C(=O)NN2CCN(C(C)C)CC2)ccc1Nc1ncc2c(n1)N(C1CCCCC1)CC(F)(F)C(=O)N2C", "note": "[Compound 79, 4-(9-cyclohexyl-7,7-difluoro-5-methyl-6-oxo-6,7,8,9-tetrahydro-5H-pyrimido[4,5-b][1,4]diazepin-2-ylamino)-N-(4-isopropylpiperazin-1-yl)-3-methoxybenzamide]", "IC50": "≤ 2"}, {"smiles": "COc1cc(C(=O)NC2CCN(CCO)CC2)ccc1Nc1ncc2c(n1)N(C1CCCC1)CC(F)(F)C(=O)N2C", "note": "[Compound 5, 4-(9-cyclopentyl-7,7-difluoro-5-methyl-6-oxo-6,7,8,9-tetrahydro-5H-pyrimido[4,5-b][1,4]diazepin-2-ylamino)-N-(1-(2-hydroxyethyl)piperidin-4-yl)-3-methoxybenzamide]", "IC50": "≤ 2"}, {"smiles": "COc1cc(C(=O)NC2CN(C(C)C)C2)c(F)cc1Nc1ncc2c(n1)N(C1CCCC1)CC(F)(F)C(=O)N2C", "note": "[Compound 132, 4-(9-cyclopentyl-7,7-difluoro-5-methyl-6-oxo-6,7,8,9-tetrahydro-5H-pyrimido[4,5-b][1,4]diazepin-2-ylamino)-2-fluoro-N-(1-isopropylazetidin-3-yl)-5-methoxybenzamide]", "IC50": "≤ 2"}, {"smiles": "COc1cc(C(=O)NN2CCN(CC3CC3)CC2)ccc1Nc1ncc2c(n1)N(C1CCCCC1)CC(F)(F)C(=O)N2C", "note": "[Compound 80, 4-(9-cyclohexyl-7,7-difluoro-5-methyl-6-oxo-6,7,8,9-tetrahydro-5H-pyrimido[4,5-b][1,4]diazepin-2-ylamino)-N-(4-(cyclopropylmethyl)piperazin-1-yl)-3-methoxybenzamidemethoxybenzamide]", "IC50": "≤ 2"}, {"smiles": "COc1cc(C(=O)NC2CN(C3CCCC3)C2)c(F)cc1Nc1ncc2c(n1)N(C1CCCC1)CC(F)(F)C(=O)N2C", "note": "[Compound 133, 4-(9-cyclopentyl-7,7-difluoro-5-methyl-6-oxo-6,7,8,9-tetrahydro-5H-pyrimido[4,5-b][1,4]diazepin-2-ylamino)-N-(1-cyclopentylazetidin-3-yl)-2-fluoro-5-methoxybenzamide]", "IC50": "≤ 2"}, {"smiles": "COc1cc(C(=O)N[C@@H]2CCCC[C@H]2O)ccc1Nc1ncc2c(n1)N(C1CCCCC1)CC(F)(F)C(=O)N2C", "note": "(racemic) [Compound 48, 4-(9-cyclohexyl-7,7-difluoro-5-methyl-6-oxo-6,7,8,9-tetrahydro-5H-pyrimido[4,5-b][1,4]diazepin-2-ylamino)-N-((trans)-2-hydroxycyclohexyl)-3-methoxybenzamide]", "IC50": "≤ 2"}]}]}
